Experimental data from ChEMBL document CHEMBL5303573, “Mapping human microbiome drug metabolism by gut bacteria and their genes” (Nature, 2019).

How the values were obtained:
[1] = The drug is tested on Eubacterium rectale strain: ATCC33656 for biotransformation. The drug concentrations were measured before and after a 12-h incubation by liquid-chromatography-coupled mass spectrometry (LC–MS); settings: agathobacter rectalis, 2 µM
[2] = The drug is tested on Bacteroides ovatus strain: ATCC8483 for biotransformation. The drug concentrations were measured before and after a 12-h incubation by liquid-chromatography-coupled mass spectrometry (LC–MS); settings: 2 µM
[3] = parabacteroides johnsonii, 12 h, 2 µM
Description: The drug is tested on Parabacteroides johnsonii strain: DSM18315 for biotransformation. The drug concentrations were measured before and after a 12-h incubation by liquid-chromatography-coupled mass spectrometry (LC–MS)

[4] = The drug is tested on Escherichia coli strain: BW25113 for biotransformation. The drug concentrations were measured before and after a 12-h incubation by liquid-chromatography-coupled mass spectrometry (LC–MS); settings: 2 µM
[5] = The drug is tested on Bacteroides fragilis strain: HMW610 for biotransformation. The drug concentrations were measured before and after a 12-h incubation by liquid-chromatography-coupled mass spectrometry (LC–MS); settings: 2 µM
[6] = The drug is tested on Bacteroides sp. WH2 strain: WH2 for biotransformation. The drug concentrations were measured before and after a 12-h incubation by liquid-chromatography-coupled mass spectrometry (LC–MS); settings: bacteroides sp. wh2, 12 h, 2 µM
[7] = The drug is tested on Providencia stuartii strain: ATCC25827 for biotransformation. The drug concentrations were measured before and after a 12-h incubation by liquid-chromatography-coupled mass spectrometry (LC–MS); settings: 2 µM
[8] = The drug is tested on Bacteroides finegoldii strain: DSM17565 for biotransformation. The drug concentrations were measured before and after a 12-h incubation by liquid-chromatography-coupled mass spectrometry (LC–MS); settings: 2 µM
[9] = The drug is tested on Bacteroides dorei strain: DSM17855 for biotransformation. The drug concentrations were measured before and after a 12-h incubation by liquid-chromatography-coupled mass spectrometry (LC–MS); settings: phocaeicola dorei, 2 µM
[10] = The drug is tested on Bacteroides xylanisolvens strain: DSM18836 for biotransformation. The drug concentrations were measured before and after a 12-h incubation by liquid-chromatography-coupled mass spectrometry (LC–MS); settings: 2 µM
[11] = enterocloster bolteae, 12 h, 2 µM
Description: The drug is tested on Clostridium bolteae strain: ATCCBAA-613 for biotransformation. The drug concentrations were measured before and after a 12-h incubation by liquid-chromatography-coupled mass spectrometry (LC–MS)

[12] = The drug is tested on Dorea formicigenerans strain: ATCC27755 for biotransformation. The drug concentrations were measured before and after a 12-h incubation by liquid-chromatography-coupled mass spectrometry (LC–MS); settings: 2 µM
[13] = The drug is tested on Eggerthella lenta strain: ATCC25559 for biotransformation. The drug concentrations were measured before and after a 12-h incubation by liquid-chromatography-coupled mass spectrometry (LC–MS); settings: 2 µM
[14] = parabacteroides distasonis, 12 h, 2 µM
Description: The drug is tested on Parabacteroides distasonis strain: ATCC8503 for biotransformation. The drug concentrations were measured before and after a 12-h incubation by liquid-chromatography-coupled mass spectrometry (LC–MS)

[15] = bacteroides thetaiotaomicron, 12 h, 2 µM
Description: The drug is tested on Bacteroides thetaiotaomicron strain: VPI-5482 for biotransformation. The drug concentrations were measured before and after a 12-h incubation by liquid-chromatography-coupled mass spectrometry (LC–MS)

[16] = bacteroides eggerthii, 12 h, 2 µM
Description: The drug is tested on Bacteroides eggerthii strain: DSM20697 for biotransformation. The drug concentrations were measured before and after a 12-h incubation by liquid-chromatography-coupled mass spectrometry (LC–MS)

[17] = The drug is tested on Edwardsiella tarda strain: ATCC23685 for biotransformation. The drug concentrations were measured before and after a 12-h incubation by liquid-chromatography-coupled mass spectrometry (LC–MS); settings: 2 µM
[18] = The drug is tested on Eubacterium ventriosum strain: ATCC27560 for biotransformation. The drug concentrations were measured before and after a 12-h incubation by liquid-chromatography-coupled mass spectrometry (LC–MS); format: ADME; parameters: dose 2 uM, timepoint 0 vs 12 hours; settings: 2 µM
[19] = bifidobacterium adolescentis, 12 h, 2 µM
Description: The drug is tested on Bifidobacterium adolescentis strain: ATCC 15703 for biotransformation. The drug concentrations were measured before and after a 12-h incubation by liquid-chromatography-coupled mass spectrometry (LC–MS)

[20] = The drug is tested on Ruminococcus gnavus strain: ATCC29149 for biotransformation. The drug concentrations were measured before and after a 12-h incubation by liquid-chromatography-coupled mass spectrometry (LC–MS); settings: mediterraneibacter gnavus, 2 µM

Row | Bacterial Biotransformation [1] | Bacterial Biotransformation [2] | Bacterial Biotransformation [3] | Bacterial Biotransformation [4] | Bacterial Biotransformation [5] | Bacterial Biotransformation [6] | Bacterial Biotransformation [7] | Bacterial Biotransformation [8] | Bacterial Biotransformation [9] | Bacterial Biotransformation [10] | Bacterial Biotransformation [11] | Bacterial Biotransformation [12] | Bacterial Biotransformation [13] | Bacterial Biotransformation [14] | Bacterial Biotransformation [15] | Bacterial Biotransformation [16] | Bacterial Biotransformation [17] | Bacterial Biotransformation [18] | Bacterial Biotransformation [19] | Bacterial Biotransformation [20] | SMILES
1 | Compound NOT metabolized | Compound NOT metabolized | Compound metabolized | Compound metabolized | Compound metabolized | Compound NOT metabolized | Compound NOT metabolized | Compound metabolized | Compound metabolized | Compound metabolized | Compound metabolized | Compound NOT metabolized | Compound metabolized | Compound metabolized | Compound NOT metabolized | Compound metabolized | Compound NOT metabolized |  |  |  | CCCCC(=O)O[C@]1(C(=O)CO)[C@@H](C)C[C@H]2[C@@H]3CCC4=CC(=O)C=C[C@]4(C)[C@@]3(F)[C@@H](O)C[C@@]21C [BETAMETHASONE VALERATE]
2 | Compound NOT metabolized | Compound NOT metabolized | Compound NOT metabolized | Compound metabolized | Compound NOT metabolized | Compound NOT metabolized | Compound NOT metabolized | Compound NOT metabolized | Compound NOT metabolized | Compound NOT metabolized | Compound NOT metabolized | Compound NOT metabolized | Compound metabolized | Compound NOT metabolized | Compound NOT metabolized | Compound NOT metabolized |  | Compound NOT metabolized | Compound NOT metabolized | Compound NOT metabolized | OC(c1cc(C(F)(F)F)nc2c(C(F)(F)F)cccc12)C1CCCCN1 (centres undefined) [MEFLOQUINE]
3 | Compound NOT metabolized | Compound NOT metabolized | Compound NOT metabolized | Compound NOT metabolized | Compound NOT metabolized | Compound NOT metabolized | Compound NOT metabolized |  | Compound NOT metabolized | Compound NOT metabolized | Compound NOT metabolized | Compound NOT metabolized | Compound NOT metabolized | Compound NOT metabolized | Compound NOT metabolized | Compound NOT metabolized | Compound NOT metabolized |  | Compound NOT metabolized | Compound NOT metabolized | COC(=O)[C@H]1[C@H]2C[C@@H]3c4[nH]c5cc(OC)ccc5c4CCN3C[C@H]2C[C@@H](OC(=O)c2cc(OC)c(OC)c(OC)c2)[C@@H]1OC [RESERPINE]
